Values after ≈ are worked out from the molar mass of the structure shown.
Legend:
[1] = logD by reversed‐phase HPLC; conditions: pH 7.5
Caco2 = experiment: Bidirectional Caco2 permeability assay, 24‐well format; conditions: for P app A→B: Caco2, apical to basolateral; for permeability in either direction (P app A→B and P app B→A): Caco2, incubation period 90 min, possibly precipitation and sticking to plastics
[2] = High‐throughput metabolic stability assay, pooled human liver microsomes; conditions: predicted hepatic metabolic (blood) clearance
rat hepatocytes = experiment: High‐throughput metabolic stability assay, freshly harvested rat hepatocytes; conditions: predicted hepatic metabolic (blood) clearance
CDK2 = CDK2 (Homo sapiens, UniProt P24941); experiment: Biochemical in vitro kinase assay CDK2
CDK9 = CDK9 (Homo sapiens, UniProt P50750); experiment: Biochemical in vitro kinase assay CDK9
A2780 cells = experiment: In vitro proliferation assay, cultivated A2780 cells; format: cell-based; conditions: Homo sapiens, A2780, read-out: IC50 A2780
[3] = Bidirectional Caco2 permeability assay, 24‐well format; conditions: human
MOLM‐13 cells = experiment: In vitro proliferation assay, MOLM‐13 cells; format: cell-based; conditions: Homo sapiens, MOLM-13, read-out: IC50 MOLM‐13
[4] = target: T1, wild‐type estrogen receptor 1 (ESR1) (Homo sapiens, UniProt P03372); experiment: Wild‐type estrogen receptor 1; format: cell-based
T1 sequence (P03372 1-595): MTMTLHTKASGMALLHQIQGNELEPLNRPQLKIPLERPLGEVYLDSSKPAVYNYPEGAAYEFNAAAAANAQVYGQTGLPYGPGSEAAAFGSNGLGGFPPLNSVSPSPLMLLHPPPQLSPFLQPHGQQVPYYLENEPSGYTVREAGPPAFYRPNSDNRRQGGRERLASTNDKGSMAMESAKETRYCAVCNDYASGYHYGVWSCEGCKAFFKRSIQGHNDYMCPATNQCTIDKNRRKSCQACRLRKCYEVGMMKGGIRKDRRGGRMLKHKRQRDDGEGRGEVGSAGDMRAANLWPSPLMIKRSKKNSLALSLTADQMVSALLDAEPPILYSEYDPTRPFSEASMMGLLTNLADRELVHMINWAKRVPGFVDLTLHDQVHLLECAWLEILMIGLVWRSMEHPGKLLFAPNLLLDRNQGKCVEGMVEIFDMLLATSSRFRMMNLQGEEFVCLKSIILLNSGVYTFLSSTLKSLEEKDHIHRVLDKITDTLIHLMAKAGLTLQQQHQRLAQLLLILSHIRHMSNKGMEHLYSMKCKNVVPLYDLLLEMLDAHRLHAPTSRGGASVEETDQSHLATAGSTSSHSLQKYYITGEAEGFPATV

MCF7 cells = experiment: In vitro proliferation assay, human MCF7 cells stimulated with 17β‐estradiol; format: cell-based; conditions: MCF7, read-out: IC50 MCF7 E2 stim.
CDK4/CycD3 = CDK4/CycD3 (Homo sapiens, UniProt P11802); experiment: Biochemical assay at ProQinase, CDK4/CycD3
CDK6/CycD3 = CDK6/CycD3 (Homo sapiens, UniProt Q00534); experiment: Biochemical assay at ProQinase, CDK6/CycD3
[5] = estimated; cited from earlier work

Chain of CDK6/CycD3 (Q00534 whole entry): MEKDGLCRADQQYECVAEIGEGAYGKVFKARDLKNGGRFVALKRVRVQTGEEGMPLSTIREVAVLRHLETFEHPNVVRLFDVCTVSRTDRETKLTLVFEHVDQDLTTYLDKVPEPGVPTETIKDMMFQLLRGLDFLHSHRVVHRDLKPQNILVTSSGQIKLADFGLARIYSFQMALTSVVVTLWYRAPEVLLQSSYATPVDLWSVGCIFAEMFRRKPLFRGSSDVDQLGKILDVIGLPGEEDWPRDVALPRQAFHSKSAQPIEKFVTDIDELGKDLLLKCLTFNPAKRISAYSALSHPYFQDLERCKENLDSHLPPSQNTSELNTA
Chain of CDK6/CycD3 (P30281 whole entry partner): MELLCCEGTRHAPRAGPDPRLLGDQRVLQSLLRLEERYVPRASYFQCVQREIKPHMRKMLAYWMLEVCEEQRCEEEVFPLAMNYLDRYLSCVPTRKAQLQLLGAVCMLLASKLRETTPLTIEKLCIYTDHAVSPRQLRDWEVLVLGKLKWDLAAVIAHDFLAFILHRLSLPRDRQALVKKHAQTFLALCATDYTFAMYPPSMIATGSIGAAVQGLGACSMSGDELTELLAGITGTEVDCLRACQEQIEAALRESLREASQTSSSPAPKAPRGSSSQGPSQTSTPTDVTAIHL
Chain of CDK4/CycD3 (P11802 whole entry): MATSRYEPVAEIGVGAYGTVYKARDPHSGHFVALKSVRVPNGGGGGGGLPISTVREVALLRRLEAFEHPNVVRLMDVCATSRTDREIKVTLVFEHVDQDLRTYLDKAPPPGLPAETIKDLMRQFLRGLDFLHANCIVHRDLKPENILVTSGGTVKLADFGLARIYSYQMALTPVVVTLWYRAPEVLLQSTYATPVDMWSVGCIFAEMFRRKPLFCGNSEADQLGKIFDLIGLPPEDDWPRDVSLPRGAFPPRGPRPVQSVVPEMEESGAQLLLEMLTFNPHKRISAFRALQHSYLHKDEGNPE
Chain of CDK4/CycD3 (P30281 whole entry partner): as the sequence (P30281 whole entry partner) above
Chain of CDK9 (P50750 whole entry): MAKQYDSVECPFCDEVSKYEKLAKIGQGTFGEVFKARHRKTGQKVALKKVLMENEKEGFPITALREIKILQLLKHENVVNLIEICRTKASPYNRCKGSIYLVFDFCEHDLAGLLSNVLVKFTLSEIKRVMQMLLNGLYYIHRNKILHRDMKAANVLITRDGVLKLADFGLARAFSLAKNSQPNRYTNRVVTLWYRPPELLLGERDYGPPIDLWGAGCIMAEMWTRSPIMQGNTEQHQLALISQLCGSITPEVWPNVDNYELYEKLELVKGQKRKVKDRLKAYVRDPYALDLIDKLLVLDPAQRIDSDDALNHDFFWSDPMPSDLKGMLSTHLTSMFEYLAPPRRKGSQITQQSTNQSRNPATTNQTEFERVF
Chain of CDK9 (O60563 whole entry partner): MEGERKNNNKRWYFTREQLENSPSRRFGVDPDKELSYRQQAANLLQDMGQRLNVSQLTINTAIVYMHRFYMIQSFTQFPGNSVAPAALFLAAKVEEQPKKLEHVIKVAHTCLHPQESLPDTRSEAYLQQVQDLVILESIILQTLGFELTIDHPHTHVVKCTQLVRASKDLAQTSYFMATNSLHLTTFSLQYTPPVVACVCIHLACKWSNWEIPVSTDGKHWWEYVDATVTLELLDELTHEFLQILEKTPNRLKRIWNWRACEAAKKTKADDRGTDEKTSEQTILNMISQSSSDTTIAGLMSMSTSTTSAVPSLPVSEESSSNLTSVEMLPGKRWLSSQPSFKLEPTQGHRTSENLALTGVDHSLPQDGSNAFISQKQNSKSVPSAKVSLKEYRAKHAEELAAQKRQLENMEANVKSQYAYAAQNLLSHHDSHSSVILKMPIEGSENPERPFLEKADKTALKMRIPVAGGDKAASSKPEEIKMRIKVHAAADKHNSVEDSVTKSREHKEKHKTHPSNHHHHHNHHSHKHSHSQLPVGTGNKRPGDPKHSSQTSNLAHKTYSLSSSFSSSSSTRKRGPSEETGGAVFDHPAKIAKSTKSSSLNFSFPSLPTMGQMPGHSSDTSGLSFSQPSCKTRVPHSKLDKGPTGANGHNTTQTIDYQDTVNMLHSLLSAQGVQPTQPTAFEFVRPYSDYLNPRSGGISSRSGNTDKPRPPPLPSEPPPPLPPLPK

Compound | chromatographic logD [1] | P app A→B (Caco2) [×10⁻⁶ cm/s] | CLb hLMs [2] [mL/min/kg] | CLb rHep (rat hepatocytes) [mL/min/kg] | IC50 (CDK2) [nM] | IC50 (CDK9) [nM] | IC50 (A2780 cells) [nM] | efflux ratio at 90 min ([3]; Caco-2) | IC50 (MOLM‐13 cells) [nM] | IC50 [4] [nM] | IC50 (MCF7 cells) [nM] | permeability in either direction (P app A→B and P app B→A) (Caco2) | IC50 (CDK4/CycD3) [nM] | IC50 (CDK6/CycD3) [nM] | efflux ratio at 90 min ([3]; Caco-2, ER, Caco2 efflux ratio, P app B→A/P app A→B) | ER (Caco2; Caco2 efflux ratio, P app B→A/P app A→B) | aqueous solubility [5] [µg/mL]
CCCc1nc(C)c2c(=O)[nH]c(-c3cc(S(=O)(=O)N4CCN(CC)CC4)ccc3OCC)nn12 [vardenafil, reference compound] | 2.6 | 20.6 | 18.3 | 50 | – | – | – | – | – | – | – | – | – | – | – | – | –
N=S1(=O)CCC(NC(=O)c2n[nH]cc2NC(=O)c2c(Cl)cccc2Cl)CC1 (stereo not drawn) [compound 15, 4‐(2,6‐Dichlorobenzamido)‐N‐(1‐imino‐1‐oxo‐1λ^6‐thian‐4‐yl)‐1H‐pyrazole‐3‐carboxamide] | 1.6 | 0.14 | 1 | 1 | 522 | 124 | 351 | 37 | – | – | – | – | – | – | – | – | –
CC(=O)c1c(C)c2cnc(Nc3ccc(N4CCNCC4)cn3)nc2n(C2CCCC2)c1=O [palbociclib, reference compound] | 1.9 | 7 | 7.5 | 21.7 | – | – | – | – | 41 | – | – | – | – | – | – | – | –
C[C@]12CC[C@@H]3c4ccc(O)cc4C[C@@H](CCCCCCCCC[S@](=N)(=O)CCCC(F)(F)C(F)(F)F)[C@H]3[C@@H]1CC[C@@H]2O [compound 33, 7α‐{9‐[(S)‐(4,4,5,5,5‐Pentafluoropentyl)sulfonimidoyl]nonyl}estra‐1,3,5(10)‐triene‐3,17β‐diol] | 3.8 | – | 18.3 | 58.3 | – | – | – | – | – | 1.8 | 7.1 | no permeability in either direction | – | – | – | – | –
CN(C)C(=O)c1cc2cnc(Nc3ccc(N4CCS(=N)(=O)CC4)cn3)nc2n1C1CCCC1 [compound 26, 7‐Cyclopentyl‐2‐{[5‐(1‐imino‐1‐oxo‐1λ^6‐thiomorpholin‐4‐yl)pyridin‐2‐yl]amino}‐N,N ‐dimethyl‐7H‐pyrrolo[2,3‐d]pyrimidine‐6‐carboxamide] | 1.8 | 2.2 | 3.5 | 18.3 | – | – | – | 11 | 1150 | – | – | – | 216 | > 1000 | – | – | –
CCCc1nc(C)c2c(=O)[nH]c(-c3cc(S(=O)(=O)N4CCS(=N)(=O)CC4)ccc3OCC)nn12 [compound 29, 4‐(4‐Ethoxy‐3‐{5‐methyl‐4‐oxo‐7‐propyl‐3 H,4H‐imidazo[4,3‐f][1,2,4]triazin‐2‐yl}benzenesulfonyl)‐1‐imino‐1λ^6‐thiomorpholin‐1‐one] | 2 | – | 7.17 | 35 | – | – | – | – | – | – | – | – | – | – | > 200 | 288 | –
CC(=O)c1c(C)c2cnc(Nc3ccc(N4CCS(=N)(=O)CC4)cn3)nc2n(C2CCCC2)c1=O [compound 23, 4‐[6‐({6‐Acetyl‐8‐cyclopentyl‐5‐methyl‐7‐oxo‐7 H,8H‐pyrido[2,3‐d]pyrimidin‐2‐yl}amino)pyridin‐3‐yl]‐1‐imino‐1λ^6‐thiomorpholin‐1‐one] | 2 | 2.5 | 4 | 18.3 | – | – | – | 9.1 | 128 | – | – | – | 101 | 240 | – | – | –

More lines, main results first:

chromatographic logD [1] | P app A→B (Caco2) [×10⁻⁶ cm/s] | CLb hLMs [2] [mL/min/kg] | CLb rHep (rat hepatocytes) [mL/min/kg] | IC50 (CDK2) [nM] | IC50 (CDK9) [nM] | IC50 (A2780 cells) [nM] | efflux ratio at 90 min ([3]; Caco-2) | IC50 (MOLM‐13 cells) [nM] | IC50 [4] [nM] | IC50 (MCF7 cells) [nM] | permeability in either direction (P app A→B and P app B→A) (Caco2) | IC50 (CDK4/CycD3) [nM] | IC50 (CDK6/CycD3) [nM] | efflux ratio at 90 min ([3]; Caco-2, ER, Caco2 efflux ratio, P app B→A/P app A→B) | ER (Caco2; Caco2 efflux ratio, P app B→A/P app A→B) | Compound | aqueous solubility [5] [µg/mL]
1.7 | 13.5 | 8.67 | 38.3 | – | – | – | – | 89 | – | – | – | – | – | – | – | CN(C)C(=O)c1cc2cnc(Nc3ccc(N4CCNCC4)cn3)nc2n1C1CCCC1 [ribociclib, reference compound] | –
1.3 | 0.1 | 4 | 28.3 | – | – | 131 | – | – | – | – | – | – | – | – | – | O=C(NC1CCNCC1)c1n[nH]cc1NC(=O)c1c(Cl)cccc1Cl [AT7519, reference compound] | –
4.2 | – | 20 | 58.3 | – | – | – | – | – | – | 9.2 | no permeability in either direction | – | – | – | – | C[C@]12CC[C@@H]3c4ccc(O)cc4C[C@@H](CCCCCCCCC[S+]([O-])CCCC(F)(F)C(F)(F)F)[C@H]3[C@@H]1CC[C@@H]2O (stereo partly drawn) [fulvestrant, reference compound] | ~0.01 (≈ 0.0165 µM)

Reference: paper PMC5485063 (Chemmedchem, 2017)
